# Reference: patent US12466831B2, “Substituted amino triazolopyrimidine and amino triazolopyrazine adenosine receptor antagonists, pharmaceutical compositions and their use” (Merck Sharp & Dohme LLC, priority 2018, dated 2025)
# Legend:
# [1] = biological target: T1, human A2b adenosine receptor (Homo sapiens, UniProt P29275); assay: A2b binding affinity, radioligand filtration binding assay; conditions: tritiated proprietary A2b antagonist, HEK293 membranes expressing human A2b
# T1 construct: purchased Perkin Elmer ES-013-C; host or cells: HEK293 cells recombinantly expressing the receptor; membranes made from them
# T1 sequence (P29275 1-332): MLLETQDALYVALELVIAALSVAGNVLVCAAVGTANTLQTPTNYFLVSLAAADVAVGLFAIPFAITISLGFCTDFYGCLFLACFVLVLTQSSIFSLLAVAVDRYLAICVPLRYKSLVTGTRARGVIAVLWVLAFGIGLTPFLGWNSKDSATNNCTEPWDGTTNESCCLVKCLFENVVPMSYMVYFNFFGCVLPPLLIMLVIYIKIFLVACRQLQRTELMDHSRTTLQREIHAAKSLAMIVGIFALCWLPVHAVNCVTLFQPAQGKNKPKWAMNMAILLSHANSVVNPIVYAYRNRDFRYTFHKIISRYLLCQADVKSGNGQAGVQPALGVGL
# Excerpt: (§1) Method (A) describes the procedure used to measure A2a binding affinity using radioligand binding. Method (B) describes the procedure used to measure A2a binding affinity using SPA technology. The method used to measure A2b binding affinity is also described below. The method used to determine the A2a IC50 value reported for each compound in the table is indicated next to the reported value. The A2b IC50 value measured using the A2b binding affinity assay is shown in the table next to the compound under the corresponding A2a value.
# Measurement of A2b Binding Affinity
# The reported affinity of the compounds of the invention for the human A2b adenosine receptor was determined experimentally using a radioligand filtration binding assay. This assay measures the amount of binding of a tritiated proprietary A2b receptor antagonist, in the presence and absence of a compound of the invention, to membranes made from HEK293 cells recombinantly expressing the human A2b adenosine receptor (Perkin Elmer, Cat. No. ES-013-C).
# 148 μL (135 μg/mL) membranes and 2 μL test compounds were transferred to individual wells of a 96-well polypropylene assay plate and incubated for 15 to 30 minutes at room temperature with agitation. Tritiated radioligand was diluted to a concentration of 14 nM in assay buffer (phosphate buffered saline without Magnesium and Calcium, pH 7.4; GE Healthcare Life Sciences, Cat. No. SH30256.01) and then 50 μL of the solution were transferred to each well of the assay plate. To define total and non-specific binding, wells containing 1% DMSO and 20 μM N-ethylcarboxamidoadenosine (Tocris Bioscience, Cat. No. 1691) respectively, were also included. The wells of the assay plate were incubated at room temperature for 60 minutes with agitation, then filtered using a FilterMate Harvester® (Perkin Elmer) or similar equipment through a UniFilter-96® PEI coated plate (Perkin Elmer Cat. No. 6005274 or 6005277). Filtering was achieved by aspirating the contents of the assay plate for 5 seconds, then washing and aspirating the contents three times with ice-cooled wash buffer (assay buffer supplemented with 0.0025% Brij58) and allowing the vacuum manifold to dry the plate for 30 seconds. The filter plate was incubated for at least 1 hour at 55° C. and allowed to dry. The bottom of the filter plate was then sealed with backing tape. 40 μL Ultima Gold™ (Perkin Elmer, Cat. No. 6013329) was added to each well of the filter plate and the top of the plate was sealed with TopSeal-A PLUS® clear plate seal (Perkin Elmer, Cat. No. 6050185). The plates were then incubated for at least 20 minutes, and then the amount of radioactivity remaining in each well was determined using a TopCount® (Perkin Elmer) scintillation counter. After normalization to total and non-specific binding, the percent effect at each compound concentration was calculated. The plot of percent effect versus the log of compound concentration was analyzed electronically using a 4-parameter logistic fit based on the Levenberg-Marquardt algorithm to generate IC50 values.
# [2] = biological target: T2, human A2a adenosine receptor (Homo sapiens, UniProt P29274); assay: A2a binding affinity using radioligand binding, Method (A); conditions: Method (A): [3H]SCH58261 filtration binding, membranes expressing human A2a
# T2 construct: purchased Perkin Elmer RBHA2aM400UA; host or cells: HEK293 or CHO cells (recombinant expression)
# Excerpt: as §1
# The A2a receptor affinity binding assay measured the amount of binding of a tritiated ligand with high affinity for the A2a adenosine receptor to membranes made from HEK293 or CHO cells recombinantly expressing the human A2a adenosine receptor, in the presence of varying concentrations of a compound of the invention. The data were generated using either filtration binding or a homogenous scintillation proximity assay (SPA).
# Method (A): Measurement of A2a Binding Affinity Using Radioligand Binding
# 148 μL (5 μg/mL) membranes (Perkin Elmer, Cat. No. RBHA2aM400UA) and 2 μL compounds of the invention to be tested (test compound) were transferred to individual wells of a 96-well polypropylene assay plate and incubated for 15 to 30 minutes at room temperature. [^3H] SCH58261 ((7-(2-phenylethyl)-5-amino-2-(2-furyl)-pyrazolo-[4,3-e]-1,2,4-triazolo[1,5-c]pyrimidine)) was diluted in assay buffer (50 mM Tris pH 7.4, 10 mM MgCl2, 0.005% Tween20) to a concentration of 4 nM and 50 μL transferred to each well of the assay plate. To define total and non-specific binding, wells containing 1% DMSO and 1 μM ZM241385 (Tocris Bioscience, Cat. No. 1036) respectively, were also included. The assay plate was incubated at room temperature for 60 minutes with agitation. Using a FilterMate Harvester® (Perkin Elmer), the contents of the assay plate were filtered through a UniFilter-96® PEI coated plate (Perkin Elmer Cat. No. 6005274 or 6005277). Filtering was achieved by aspirating the contents of the assay plate for 5 seconds, then washing and aspirating the contents three times with ice-cooled wash buffer (50 mM Tris-HCl pH 7.4, 150 mM NaCl) and allowing the vacuum manifold to dry the plate for 30 seconds. The filter plate was incubated for at least 1 hour at 55° C. and allowed to dry. The bottom of the filter plate was sealed with backing tape. 40 μL Ultima Gold™ (Perkin Elmer, Cat. No. 6013329) was added to each well of the filter plate and the top of the plate was sealed with TopSeal-A PLUS® clear plate seal (Perkin Elmer, Cat. No. 6050185). The plate was incubated for at least 20 minutes, and then the amount of radioactivity remaining in each well was determined using a TopCount® (Perkin Elmer) scintillation counter. After normalization to total and non-specific binding, the percent effect at each compound concentration was calculated. The plot of percent effect versus the log of compound concentration was analyzed electronically using a 4-parameter logistic fit based on the Levenberg-Marquardt algorithm to generate IC50 values.
# T2 sequence (P29274 whole entry): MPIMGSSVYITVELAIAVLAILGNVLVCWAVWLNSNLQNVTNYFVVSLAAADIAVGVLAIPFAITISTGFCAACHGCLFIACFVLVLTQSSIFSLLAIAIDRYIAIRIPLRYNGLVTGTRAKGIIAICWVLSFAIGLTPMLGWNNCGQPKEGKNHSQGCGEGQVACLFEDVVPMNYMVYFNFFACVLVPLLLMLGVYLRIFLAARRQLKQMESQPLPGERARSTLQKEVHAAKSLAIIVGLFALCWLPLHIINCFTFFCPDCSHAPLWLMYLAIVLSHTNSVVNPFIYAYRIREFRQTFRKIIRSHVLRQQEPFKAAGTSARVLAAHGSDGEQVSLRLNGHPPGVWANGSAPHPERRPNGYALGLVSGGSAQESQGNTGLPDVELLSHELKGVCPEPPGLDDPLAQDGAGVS
SMILES,IC50 [1],IC50 [2]
"Cc1c(-c2ncco2)nc(N)n2nc([C@@H]3CCCN(c4cnn(CC(C)(C)O)c4C)C3)nc12 [Example 3.10, (R)-1-(4-(3-(5-amino-8-methyl-7-(oxazol-2-yl)-[1,2,4]triazolo[1,5-c]pyrimidin-2-yl)piperidin-1-yl)-5-methyl-1H-pyrazol-1-yl)-2-methylpropan-2-ol]",535 nM,2.1 nM
"Cc1c(-c2ncco2)nc(N)n2nc([C@@H]3CCCN(c4cnn(C(C)C)c4)C3)nc12 [Example 3.12, (R)-2-(1-(1-isopropyl-1H-pyrazol-4-yl)piperidin-3-yl)-8-methyl-7-(oxazol-2-yl)-[1,2,4]triazolo[1,5-c]pyrimidin-5-amine]",167 nM,1.2 nM
"Cc1nn(CC(C)(C)O)cc1N1CCC[C@@H](c2nc3c(C)c(-c4ncco4)nc(N)n3n2)C1 [Example 3.9, (R)-1-(4-(3-(5-amino-8-methyl-7-(oxazol-2-yl)-[1,2,4]triazolo[1,5-c]pyrimidin-2-yl)piperidin-1-yl)-3-methyl-1H-pyrazol-1-yl)-2-methylpropan-2-ol]",553 nM,0.1 nM
"Cc1c(-c2ncco2)nc(N)n2nc(C3CCN(CC(F)(F)F)C3)nc12 (racemic) [Example 9.1, (R and S)-8-methyl-7-(oxazol-2-yl)-2-(1-(2,2,2-trifluoroethyl)pyrrolidin-3-yl)-[1,2,4]triazolo[1,5-c]pyrimidin-5-amine]",618 nM,32.3 nM
"Cc1c(-c2ncco2)nc(N)c2nc(C3CCC(C)(O)C3)nn12 (single isomer, unassigned) [Example 8.6, (1R,3S and 1S,3R) or (1R,3R and 1S,3S)-(8-amino-5-methyl-6-(oxazol-2-yl)-[1,2,4]triazolo[1,5-a]pyrazin-2-yl)-1-methylcyclopentan-1-ol]",142 nM,6.5 nM
"Cc1c(-c2ncco2)nc(N)c2nc(C3CCC(C)(O)C3)nn12 (single isomer, unassigned) [Example 8.7, (1R,3S and 1S,3R) or (1R,3R and 1S,3S)-3-(8-amino-5-methyl-6-(oxazol-2-yl)-[1,2,4]triazolo[1,5-a]pyrazin-2-yl)-1-methylcyclopentan-1-ol]",2590 nM,143 nM
"Cc1c(-c2ncco2)nc(N)n2nc(C3CCCC(C)(O)C3)nc12 (single isomer, unassigned) [Example 8.2-2, (1-R or S,3-R or S)-3-(5-amino-8-methyl-7-(oxazol-2-yl)-[1,2,4]triazolo[1,5-c]pyrimidin-2-yl)-1-methylcyclohexan-1-ol]",7310 nM,227 nM
"CCn1cc(N2C[C@@H](c3nc4c(C)c(-c5ncco5)nc(N)n4n3)CC[C@H]2C)cn1 [Example 2.15, 2-((3S,6R)-1-(1-ethyl-1H-pyrazol-4-yl)-6-methylpiperidin-3-yl)-8-methyl-7-(oxazol-2-yl)-[1,2,4]triazolo[1,5-c]pyrimidin-5-amine]",2400 nM,20 nM
"Cc1c(-c2ncco2)nc(N)n2nc([C@@H]3CCCNC3)nc12 [Example 2.3, (R)-8-methyl-7-(oxazol-2-yl)-2-(piperidin-3-yl)-[1,2,4]triazolo[1,5-c]pyrimidin-5-amine]",1040 nM,20.5 nM
"Cc1c(-c2ncco2)nc(N)n2nc([C@@H]3CCCN(c4cnn(CC(C)(C)O)c4)C3)nc12 [Example 3.7, (R)-1-(4-(3-(5-amino-8-methyl-7-(oxazol-2-yl)-[1,2,4]triazolo[1,5-c]pyrimidin-2-yl)piperidin-1-yl)-1H-pyrazol-1-yl)-2-methylpropan-2-ol]",224 nM,4.7 nM
"Cc1c(-c2ncco2)nc(N)n2nc(C3CCCC(C)(O)C3)nc12 (single isomer, unassigned) [Example 8.3-1, (1-R or S,3-R or S)-3-(5-amino-8-methyl-7-(oxazol-2-yl)-[1,2,4]triazolo[1,5-c]pyrimidin-2-yl)-1-methylcyclohexan-1-ol]",5560 nM,7.9 nM
"CCn1cc(N2C[C@H](c3nc4c(C)c(-c5ncco5)nc(N)n4n3)CC[C@@H]2C)cn1 [Example 2.14, 2-((3R,6S)-1-(1-ethyl-1H-pyrazol-4-yl)-6-methylpiperidin-3-yl)-8-methyl-7-(oxazol-2-yl)-[1,2,4]triazolo[1,5-c]pyrimidin-5-amine]",17.6 nM,1.2 nM
"Cc1c(-c2ncco2)nc(N)n2nc([C@@H]3CCCN(c4cnn(C5CCOCC5)c4)C3)nc12 [Example 3.6, (R)-8-methyl-7-(oxazol-2-yl)-2-(1-(1-(tetrahydro-2H-pyran-4-yl)-1H-pyrazol-4-yl)piperidin-3-yl)-[1,2,4]triazolo[1,5-c]pyrimidin-5-amine]",389 nM,0.9 nM
"Cc1c(-c2cccc(F)c2)nc(N)c2nc(C3CCCC(C)(O)C3)nn12 (single isomer, unassigned) [Example 8.10-1, (1R,3S or 1S,3R or 1R,3R or 1S,3S)-1-3-(8-amino-6-(3-fluorophenyl)-5-methyl-[1,2,4]triazolo[1,5-a]pyrazin-2-yl)-1-methylcyclohexan-1-ol]",2640 nM,175 nM
"Cc1c(-c2ncco2)nc(N)n2nc([C@@H]3CCCN(c4cnn(C(C)C(C)(C)O)c4)C3)nc12 (single isomer, unassigned) [Example 2.11, (S or R)-3-(4-((R)-3-(5-amino-8-methyl-7-(oxazol-2-yl)-[1,2,4]triazolo[1,5-c]pyrimidin-2-yl)piperidin-1-yl)-1H-pyrazol-1-yl)-2-methylbutan-2-ol]",81.6 nM,3.2 nM
"Cc1c(-c2ncco2)nc(N)c2nc([C@H]3CCCN(c4cnn(C)c4)C3)nn12 (single isomer, unassigned) [Example 2.5-2]",7390 nM,37.3 nM
